Among the data in ChEMBL document CHEMBL2094269, “WEHI/Eskitis Trypanosoma b. brucei screening data” are IC50 values, retold here.

Data set [1] can be described thus: (§1) DNDI: Cytotoxicity against human MRC-5 lung fibroblast cells. The following applies: IC50.
The next data set concerns MRC5. Described as §1.
Data set [2] concerns Trypanosoma brucei brucei. Description: microbe, parasite or virus in culture. In kind it is functional, organism-based, STIB 795.
Description: DNDI: Inhibition of Human African Trypanosomiasis (HAT), STIB 795, in vitro
For another data set, the system named is Trypanosoma cruzi. Description: DNDI: Inhibition of Chagas Disease parasite Trypanosoma cruzi (Tulahuen LacZ, Clone C4), in vitro. In kind it is functional, organism-based.
The nature of data set [3]: DNDI: Cytotoxicity against L-6 rat myoblasts from skeletal muscle. The note with it: L-6 rat skeletal muscle myoblast cells. Type of data set: toxicity, cell-based, Muscle tissue, L6.
In data set [4] the test system is Trypanosoma brucei rhodesiense. As to the kind of experiment: DNDI: Inhibition of Human African Trypanosomiasis (HAT), STIB 900, in vitro. Type of data set: functional, organism-based.
Another data set concerns Leishmania donovani. As to the kind of experiment: DNDI: Inhibition of formation of Leishmania donovani (strain MHOM/ET/67/L82) axenic amastigotes, in vitro. Type of data set: functional, organism-based.
A further data set concerns Plasmodium falciparum. Description: DNDI: Inhibition of the malaria parasite Plasmodium falciparum, in vitro. In kind it is functional, organism-based. The note with it: K1.

The structures appear in SMILES notation. Values joined by “and” are separate entries in the source; they are usually repeats but may differ in a detail not shown here. Identical values can stand only once.

In general, IC50 refers to the point on the concentration scale where inhibition reaches its midpoint. A higher IC50 goes with weaker potency in that assay. Consider `Cc1ccc2[nH]c3c(c2c1)CCCC3CN` (configuration not stated), for which the concentration for half-maximal inhibition (IC50) was greater than 10.4 µM in data set [1]; greater than 20.8 µM with MRC5; 0.664 µM in data set [2]; 1.22 µM in data set [2] (Trypanosoma brucei, STIB 795).
`O=S(=O)(Nc1ccc(O)c(-c2c(O)ccc3ccccc23)c1)c1cccs1`: the IC50 in data set [1] is greater than 41.7 µM; in data set [2] (Trypanosoma brucei, STIB 795), 5 µM.
As for `Cc1ccc(-c2cnc3ccccc3[n+]2C)c(C)c1`, the IC50 was greater than 20.8 µM in data set [1]; greater than 10.4 µM in the data set on MRC5; 0.739 µM and 3.32 µM in data set [2].
Take `Cc1cc(=O)[nH]c(-n2nc(C)cc2NC(=O)C2CCCC2)n1`: the 50% inhibitory concentration (IC50) with Trypanosoma cruzi is 4.5 µM; in data set [3], 0.265 µM; in data set [1], greater than 10.4 µM; in data set [2] (Trypanosoma brucei, STIB 795), 0.435 µM; in data set [4], 1.42 µM; with Leishmania donovani, 0.143 µM. This molecule also yielded a half-inhibitory concentration (IC50) in the data set with Plasmodium falciparum of 2.39 µM.
Regarding `CC(C)(C)C(=O)NCCc1csc(-c2cccc(F)c2)n1`, the concentration for half-maximal inhibition (IC50) in the data set with Trypanosoma cruzi is 0.709 µM; in data set [3], 19.1 µM; in data set [1] it was greater than 41.7 µM; in data set [2] (Trypanosoma brucei, STIB 795), 0.441 µM; in data set [4], 0.451 µM; in the data set with Leishmania donovani, 14.1 µM. Further, the midpoint of inhibition in the data set with Plasmodium falciparum, the IC50, lay at 10.8 µM.
In the case of `O=C(CCc1ccccc1)N/N=C/c1ccc(O)c2ncccc12`, the IC50 in data set [1] was greater than 10.4 µM; in the data set on MRC5, greater than 20.8 µM; in data set [2] it was 0.456 µM; in data set [2] (Trypanosoma brucei, STIB 795) it was 0.484 µM.
With `O=C(NCCc1n[nH]c(-c2ccc(F)cc2)n1)c1cccc(F)c1`, the IC50 is 6.35 µM with Trypanosoma cruzi; 39.2 µM in data set [3]; greater than 41.7 µM in data set [1]; 1.93 µM in data set [2] (Trypanosoma brucei, STIB 795); 2.22 µM in data set [4]; 15.5 µM in the data set on Leishmania donovani. The same molecule returned a concentration for half-maximal inhibition (IC50) in the data set with Plasmodium falciparum of 7.85 µM.
As for `COc1ccc2[nH]c(C)c(CCNCCC3=C(C)CCCC3(C)C)c2c1`, the IC50 in data set [1] was 5.93 µM; in the data set on MRC5, 4.92 µM; in data set [2] it was 1.76 µM; in data set [2] (Trypanosoma brucei, STIB 795), 1.33 µM.
The matching figures for `CC1=NN(c2cccc(Cl)c2)C(=O)/C1=C\NNC(=O)c1ccccc1`: greater than 4.17 µM, 4.6 µM, 1.92 µM and 1.49 µM.
Take `COc1ccc(C(NC(=O)C(C)C)c2ccc3cccnc3c2O)cc1OC` (configuration not stated): the IC50 in data set [1] was 2.29 µM; in the data set with MRC5, greater than 4.17 µM; in data set [2] it was 2.78 µM and 1.08 µM.
As for `CCc1ccccc1/N=C(\NCCN1CCOCC1)NC(=O)c1ccccc1`, the IC50 in the data set with Trypanosoma cruzi was 31.2 µM; in data set [3], 50.3 µM; in data set [1], greater than 41.7 µM; in data set [2] (Trypanosoma brucei, STIB 795), 0.681 µM; in data set [4] it was 0.333 µM; in the data set on Leishmania donovani it was 83.9 µM. This molecule also returned an IC50 in the data set on Plasmodium falciparum of 2.02 µM.
For the molecule `COCC(=O)N/N=C/c1ccc(SCC(=O)Nc2ccc3ccccc3c2)o1`, the IC50 in data set [1] was greater than 41.7 µM; in data set [2] (Trypanosoma brucei, STIB 795), 6.86 µM.
As to `CCOC(=O)c1ccc(NC(=O)C2CCCN(C(=O)c3ccccc3F)C2)cc1` (configuration not stated), the 50% inhibitory concentration (IC50) is greater than 20.8 µM in data set [1] and 56.3 µM in data set [2] (Trypanosoma brucei, STIB 795).
The matching figures for `COC(=O)c1c(SCC(=O)Nc2cccc(OC)c2)[nH]c2ccccc2c1=O`: greater than 20.8 µM and 4.55 µM.
Consider `CCS(=O)(=O)N1CCCc2ccc(NS(=O)(=O)c3ccccc3F)cc21`, for which the IC50 is 5.87 µM in the data set on Trypanosoma cruzi; 8.64 µM in data set [3]; greater than 41.7 µM in data set [1]; 1.3 µM in data set [2] (Trypanosoma brucei, STIB 795); 5.81 µM in data set [4]; 2.63 µM in the data set with Leishmania donovani. In addition, the IC50 in the data set with Plasmodium falciparum is 5.02 µM.
As for `CCn1c(SCC(=O)N/N=C(\C)c2ccc(O)c(OC)c2)nc2ccccc21`, the half-inhibitory concentration (IC50) is greater than 41.7 µM in data set [1] and 5.06 µM in data set [2] (Trypanosoma brucei, STIB 795).
For `CCN(CC)c1ccc(C(Nc2ccccn2)c2ccc3cccnc3c2O)cc1` (configuration not stated) the same measures were greater than 20.8 µM and 8.71 µM.
As to `Cc1ccsc1/C=C(\C(=O)NCc1cccnc1)S(=O)(=O)c1ccccc1`, the half-maximal inhibitory concentration (IC50) is greater than 20.8 µM in data set [1] and 5.29 µM in data set [2] (Trypanosoma brucei, STIB 795).
As for `COc1cc(-n2nnn(C3CC(=O)C4OCC3O4)c2=S)c(OC)cc1Cl` (configuration not stated), the IC50 in data set [1] was greater than 20.8 µM; in data set [2], > 10.4 µM and 4.74 µM.
For `N=C(N)N/N=C(/C=C(\c1ccc(Cl)cc1)n1ccnc1)c1ccc(Cl)cc1`, the IC50 in data set [1] was greater than 10.4 µM; in data set [2] (Trypanosoma brucei, STIB 795), 3 µM.
Regarding `CCC(=O)N(CC(CC(C)C)N1CCN(C)CC1)c1ccc(C2CCCC2)cc1` (configuration not stated), the IC50 was greater than 41.7 µM in data set [1] and 4.79 µM in data set [2] (Trypanosoma brucei, STIB 795).
Consider `N=c1n(CCOc2ccccc2)c2ccccc2n1CCN1CCCCC1`, for which the IC50 in data set [1] is greater than 20.8 µM; in data set [2], 2.98 µM and > 10.4 µM.
Regarding `O=C(NC(c1ccc2c(c1)OCO2)c1ccc2cccnc2c1O)c1ccccc1` (configuration not stated), the IC50 in data set [1] was greater than 4.17 µM; in data set [2] (Trypanosoma brucei, STIB 795), 4.91 µM.
For `CNC1=C(N(C(C)=O)c2ccc(Br)cc2)C(=O)c2ccccc2C1=O` the same measures were 4.88 µM and 0.515 µM.
Turning to `CN(C)c1ccc2nc3ccc(=[N+](C)C)cc-3sc2c1` [METHYLENE BLUE CATION], the half-maximal inhibitory concentration (IC50) is greater than 2.08 µM in data set [1] and less than 0.02 µM in data set [2] (Trypanosoma brucei, STIB 795).
For `Cc1ccc2ccc3ccc(C)nc3c2n1` [NEOCUPROINE] the same measures were greater than 20.8 µM and 0.557 µM.
